The Ki is a measure of affinity in units of concentration, obtained from inhibition or displacement. One may read the pKa as the pH at which an ionisable group is half protonated.

Results on five compounds are retold here after publication PMC4104174 (Journal of the American Chemical Society, 2014).

Like-named read-outs stand apart in the source and are kept apart here.

One series concerns the target hCAII. The note with it: cited from earlier work.
For series [1], the target named is human carbonic anhydrase II (hCAII) (Homo sapiens, UniProt P00918). In words: hCAII activity assay. In kind it is biochemical.
For series [2] the following is noted: free ligand acidity; cited from earlier work.

As for 2-mercaptopyridine-N-oxide [1,2-HOPTO], the Ki on hCAII (previously reported) is 850 µM. As to `Oc1ccccc1S` [2-MP, 2-mercaptophenol], on hCAII, the Ki was 3 ± 0.7 µM. Compound `Cc1cc(=S)c(O)co1` [ATM, 5-hydroxy-2-methyl-4H-pyran-4-thione] yielded a Ki in series [1] of 650 ± 60 µM. The “fold more potent (Ki) than TM and TPMA” value in series [1] (ATM vs TM and TPMA, hCAII) is given as “roughly 2 fold”. In addition, the pKa in series [2] is 7.64. In turn, `Cc1occc(=S)c1O` [TM, 3-hydroxy-2-methyl-4H-pyran-4-thione] had a Ki in series [1] of 1400 ± 200 µM. Also, in series [2], the pKa is 8.06. `Oc1coccc1=S` [TPMA, 3-hydroxy-4H-pyran-4-thione] gave a Ki in series [1] of 1100 ± 200 µM.
